According to PubChem BioAssay AID248 (DTP/NCI, 2004):
“And” between values parts separate entries of the source, which are not always exact repeats. Equal values may be shown once. Inconclusive results and toxic doses are left out. Cut-off read from the data, not from the text of the source: active = T/C of 150% or more; inactive = T/C below 125%.

System: L1210 leukemia ip in BDF1 mice, survival T/C
Assay: NCI In Vivo Anticancer Drug Screen. Data for tumor model L1210 Leukemia (intraperitoneal) in B6D2F1 (BDF1) mice
Settings: endpoint: mean survival time, higher = longer survival
Procedure, shortened: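 Tumor was transplanted into mice, which were then dosed with test compound or vehicle alone. Survival was recorded for each group, and the treated figure was expressed relative to the control figure.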

[1] = dose: 100.0 mg/kg/injection, schedule: Q01DX001 (ip), vehicle: saline
[2] = dose: 200.0 mg/kg/injection, schedule: Q01DX001 (ip), vehicle: saline
[3] = dose: 400.0 mg/kg/injection, schedule: Q01DX001 (ip), vehicle: saline
[4] = dose: 100.0 mg/kg/injection, schedule: Q04DX003 (ip), vehicle: Klucel (hydroxypropylcellulose) (HPC)
[5] = dose: 200.0 mg/kg/injection, schedule: Q04DX003 (ip), vehicle: Klucel (hydroxypropylcellulose) (HPC)
[6] = dose: 100.0 mg/kg/injection, schedule: Q01DX001 (ip), vehicle: carboxymethylcellulose (CMC)
[7] = dose: 200.0 mg/kg/injection, schedule: Q01DX001 (ip), vehicle: carboxymethylcellulose (CMC)
[8] = dose: 100.0 mg/kg/injection, schedule: Q04DX003 (ip), vehicle: saline with Tween-80
[9] = dose: 200.0 mg/kg/injection, schedule: Q04DX003 (ip), vehicle: saline with Tween-80
[10] = dose: 400.0 mg/kg/injection, schedule: Q01DX001 (ip), vehicle: carboxymethylcellulose (CMC)
[11] = dose: 400.0 mg/kg/injection, schedule: Q04DX003 (ip), vehicle: saline with Tween-80

Measured: T/C

COc1cc2c(cc1OC)C1C(O)C(OC)C=C3CCN(C2)C31 (configuration not stated)
inactive: [1] 100 % of control | [2] 97 % of control | [3] 103 % of control

O=C1OC(=O)c2ccc(SCC(O)CCl)c3cccc1c23 (configuration not stated)
inactive: dose: 25.0 mg/kg/injection, schedule: Q01DX009 (ip), vehicle: other 98 % of control | dose: 50.0 mg/kg/injection, schedule: Q01DX009 (ip), vehicle: other 93 % of control | dose: 100.0 mg/kg/injection, schedule: Q01DX009 (ip), vehicle: other 93 % of control and 109 % of control

C1=C2CN3CCC45c6ccccc6N6CCC(OC1)C(C2CC34)C65 (configuration not stated)
inactive: dose: 1.25 mg/kg/injection, schedule: Q01DX001 (ip), vehicle: other 105 % of control

CCOC(=O)C1CCC(=O)N1C(=O)c1cc([N+](=O)[O-])cc([N+](=O)[O-])c1 (configuration not stated)
inactive: [4] 97 % of control | [5] 92 % of control | dose: 400.0 mg/kg/injection, schedule: Q04DX003 (ip), vehicle: Klucel (hydroxypropylcellulose) (HPC) 94 % of control

COc1ccc2c(C)c(C)[nH]c2c1
inactive: dose: 50.0 mg/kg/injection, schedule: Q01DX001 (ip), vehicle: saline 101 % of control | [1] 109 % of control | [2] 115 % of control | [3] 104 % of control

C(C#CC1CCCCC1)#CC1CCCCC1
inactive: dose: 100.0 mg/kg/injection, schedule: Q01DX009 (ip), vehicle: saline 94 % of control | dose: 200.0 mg/kg/injection, schedule: Q01DX009 (ip), vehicle: saline 91 % of control | dose: 400.0 mg/kg/injection, schedule: Q01DX009 (ip), vehicle: saline 94 % of control

CC1(C)CN1c1nc(N2CC2(C)C)nc(N2CC2(C)C)n1
inactive: dose: 44.0 mg/kg/injection, schedule: Q01DX001 (ip), vehicle: carboxymethylcellulose (CMC) 106 % of control and 108 % of control | dose: 66.0 mg/kg/injection, schedule: Q01DX001 (ip), vehicle: carboxymethylcellulose (CMC) 106 % of control and 108 % of control | [6] 113 % of control and 120 % of control | dose: 150.0 mg/kg/injection, schedule: Q01DX001 (ip), vehicle: carboxymethylcellulose (CMC) 116 % of control and 118 % of control | [7] 118 % of control

CSCCC(C#N)c1ccccc1 (configuration not stated)
inactive: dose: 50.0 mg/kg/injection, schedule: Q01DX009 (ip), vehicle: saline with Tween-80 93 % of control | dose: 100.0 mg/kg/injection, schedule: Q01DX009 (ip), vehicle: saline with Tween-80 104 % of control | [8] 103 % of control | dose: 100.0 mg/kg/injection, schedule: Q04DX003 (ip), vehicle: saline 103 % of control | dose: 200.0 mg/kg/injection, schedule: Q01DX009 (ip), vehicle: saline with Tween-80 110 % of control | [9] 97 % of control | dose: 200.0 mg/kg/injection, schedule: Q04DX003 (ip), vehicle: saline 97 % of control

Cc1cc2nc(SCC(=O)O)[nH]c2cc1C
inactive: dose: 100.0 mg/kg/injection, schedule: Q01DX009 (ip), vehicle: gum acacia 96 % of control | dose: 100.0 mg/kg/injection, schedule: Q04DX003 (ip), vehicle: gum acacia 99 % of control | dose: 200.0 mg/kg/injection, schedule: Q01DX009 (ip), vehicle: gum acacia 89 % of control | dose: 200.0 mg/kg/injection, schedule: Q04DX003 (ip), vehicle: gum acacia 103 % of control | dose: 400.0 mg/kg/injection, schedule: Q04DX003 (ip), vehicle: gum acacia 93 % of control

CC1(C)NCC(=O)N1C(Cc1ccccc1)C(=O)O (configuration not stated)
inactive: [1] 100 % of control | [2] 97 % of control | [3] 100 % of control

CC(C)NP(=O)(NC(C)C)OC1CC(C)(C)N(O)C(C)(C)C1
inactive: dose: 6.25 mg/kg/injection, schedule: Q01DX001 (ip), vehicle: water 92 % of control | dose: 12.5 mg/kg/injection, schedule: Q01DX001 (ip), vehicle: water 96 % of control | dose: 25.0 mg/kg/injection, schedule: Q01DX001 (ip), vehicle: water 99 % of control | dose: 50.0 mg/kg/injection, schedule: Q01DX001 (ip), vehicle: water 94 % of control

CC12C(=O)C(C(c3ccccc3)=C1c1ccccc1)C1C(=O)OC(=O)C12 (configuration not stated)
inactive: dose: 75.0 mg/kg/injection, schedule: Q01DX001 (ip), vehicle: saline 95 % of control | dose: 150.0 mg/kg/injection, schedule: Q01DX001 (ip), vehicle: saline 86 % of control | dose: 300.0 mg/kg/injection, schedule: Q01DX001 (ip), vehicle: saline 95 % of control

O=C1c2cc(Br)ccc2-c2c(I)cc(Br)cc21
inactive: dose: 50.0 mg/kg/injection, schedule: Q01DX001 (ip), vehicle: carboxymethylcellulose (CMC) 103 % of control | [6] 100 % of control | [7] 100 % of control | [10] 100 % of control

CON(C)CCOC(=O)c1ccc(N)cc1
inactive: dose: 50.0 mg/kg/injection, schedule: Q04DX002 (ip), vehicle: saline with Tween-80 104 % of control | dose: 100.0 mg/kg/injection, schedule: Q04DX002 (ip), vehicle: saline with Tween-80 107 % of control | [8] 89 % of control | dose: 200.0 mg/kg/injection, schedule: Q04DX002 (ip), vehicle: saline with Tween-80 104 % of control | [9] 95 % of control | dose: 400.0 mg/kg/injection, schedule: Q04DX002 (ip), vehicle: saline with Tween-80 104 % of control | [11] 99 % of control

COc1ccc2c(c1O)C13CCN(C)C(C2)C12C=CC(=O)C3c1c(O)ccc(O)c12 (configuration not stated)
inactive: [6] 92 % of control | [7] 97 % of control | [10] 95 % of control

CCn1c(N)c(N)c(=O)[nH]c1=S
inactive: [8] 86 % of control | [9] 93 % of control | [11] 86 % of control

CCCCC1=C(OCC)C(CCCC)C1=O (configuration not stated)
inactive: dose: 10.0 mg/kg/injection, schedule: Q01DX009 (ip), vehicle: Klucel (hydroxypropylcellulose) (HPC) 94 % of control | dose: 20.0 mg/kg/injection, schedule: Q01DX009 (ip), vehicle: Klucel (hydroxypropylcellulose) (HPC) 92 % of control | dose: 40.0 mg/kg/injection, schedule: Q01DX009 (ip), vehicle: Klucel (hydroxypropylcellulose) (HPC) 94 % of control | dose: 100.0 mg/kg/injection, schedule: Q01DX009 (ip), vehicle: Klucel (hydroxypropylcellulose) (HPC) 101 % of control | [4] 96 % of control | [5] 100 % of control

Cc1c(-c2ccccc2)oc2c(C(=O)OCCN3CCCCC3)cccc2c1=O
inactive: [1] 102 % of control | [2] 102 % of control | [3] 96 % of control

Cc1nc(N)nc2c1CCC(O)S2 (configuration not stated)
inactive: dose: 50.0 mg/kg/injection, schedule: Q01DX001 (ip), vehicle: Klucel (hydroxypropylcellulose) (HPC) 89 % of control | dose: 200.0 mg/kg/injection, schedule: Q01DX001 (ip), vehicle: Klucel (hydroxypropylcellulose) (HPC) 86 % of control

COC(=O)/C=C(\C)Nc1ccc(NC(C)=O)cc1
inactive: dose: 25.0 mg/kg/injection, schedule: Q01DX009 (ip), vehicle: acetone 101 % of control | dose: 50.0 mg/kg/injection, schedule: Q01DX009 (ip), vehicle: acetone 101 % of control | dose: 100.0 mg/kg/injection, schedule: Q01DX009 (ip), vehicle: acetone 94 % of control | dose: 100.0 mg/kg/injection, schedule: Q04DX003 (ip), vehicle: acetone 94 % of control | dose: 200.0 mg/kg/injection, schedule: Q04DX003 (ip), vehicle: acetone 96 % of control
